Test results taken from publication PMC6321168, “Comparative Study on Excretive Characterization of Main Components in Herb Pair Notoginseng-Safflower and Single Herbs by LC–MS/MS” (Pharmaceutics, 2018).

Test: Urinary excretion study in rats after oral NS, SF or CNS (LC–MS/MS)
Assay type: in vivo
Settings: for concentration at 2 h / concentration at 4 h / concentration at 8 h / concentration at 12 h / concentration at 24 h / concentration at 36 h / concentration at 48 h / concentration at 72 h / concentration at 96 h / concentration at 120 h / concentration at 6 h: male, Sprague Dawley, rat, urine, oral; for Accumulative excretion amount / Accumulative excretion percentage / Excretion amount: rat urine
Procedure: The animal room was set at constant temperature of 20 ± 2 °C with humidity of 50 ± 20% and 12/12 h light/dark cycle.
Eighteen male rats were fasted for 12 h before starting the experiment. The rats were divided into three groups at random (n = 6) and received NS (60 mg/kg), SF (50 mg/kg), and NS (60 mg/kg) + SF (50 mg/kg), respectively, by oral gavage. The rats were placed in separate metabolic cages. The urine samples were collected at 0–2, 2–4, 4–6, 6–8, 8–12, 12–24, 24–36, 36–48, 48–72, 72–96, and 96–120 h. The feces samples were collected at 0–4, 4–8, 8–12, 12–24, 24–36, 36–48, 48–72, 72–96, and 96–120 h. The urine volume was recorded and the dry feces were measured for each collection period. Samples were stored at −80 °C until analysis.
An aliquot of 200 μL urine sample was mixed with 10 μL of IS and evaporated to dryness with a ZLS-2 vacuum centrifugal concentrator (Herexi Co., Ltd., Changsha, Hunan, China). The residue was reconstituted in 100 μL of 50% methanol vortexed for 2 min and centrifuged at 12,000 rpm for 15 min. Finally, a 1 μL aliquot was injected for LC–MS analysis.
Ultra fast liquid chromatography (UFLC) analysis was performed using a Shimadzu UFLC system (DGU-20A3R Degasser; LC-20AD pump; SIL-20AXR Autosampler; CTO-20AC Column Oven) (Nakagyo-Ku, Koyoto, Japan). […] Because of the different endogenous substances in the urine and feces samples, different elution gradients were used to alleviate the matrix effects for the analytes.
The mass spectrometric detection was performed on an ABSciex 4500 Qtrap mass spectrometer (ABSciex, Foster City, CA, USA) equipped with a negative electrospray ionization (ESI) interface using multiple reaction monitoring (MRM). The MS parameters were optimized under the selected ion monitoring conditions as follows: curtain gas, 35 psi; ionspray voltage, 4500 V; turbo gas temperature, 450 °C; GS1, 45 psi; GS2, 45 psi. All data were acquired and analyzed by Analyst software (Versions 1.6.2) from ABSciex.
The accumulative excretion percentage was calculated for each analyte as follows. Excretion at time (t) = [concentration of the analyte (ng/mL) at t] × total urine (or feces) volume (mL) at t. The cumulative excretion up to time t (mg) was expressed as a percent (%) cumulative excretion by dividing by the total amount of the analyte ingested (mg): % Cumulative Excretion = 100 × (Σt excretiont) total ingested.

CC(C)=CCC[C@](C)(O[C@@H]1O[C@H](CO)[C@@H](O)[C@H](O)[C@H]1O)[C@H]1CC[C@]2(C)[C@@H]1[C@H](O)C[C@@H]1[C@@]3(C)CC[C@H](O[C@@H]4O[C@H](CO)[C@@H](O)[C@H](O)[C@H]4O[C@@H]4O[C@H](CO)[C@@H](O)[C@H](O)[C@H]4O)C(C)(C)[C@@H]3CC[C@]12C [ginsenoside Rd]
concentration at 2 h (60 mg/kg, oral NS 60 mg/kg, 2 h): 17 ± 39 ng/mL | concentration at 4 h (60 mg/kg, oral NS 60 mg/kg, 4 h): 33 ± 69 ng/mL | concentration at 8 h (60 mg/kg, oral NS 60 mg/kg, 8 h): 9 ± 12 ng/mL | concentration at 12 h (60 mg/kg, oral NS 60 mg/kg, 12 h): 28 ± 19 ng/mL | concentration at 24 h (60 mg/kg, oral NS 60 mg/kg, 24 h): 34 ± 63 ng/mL | concentration at 36 h (60 mg/kg, oral NS 60 mg/kg, 36 h): 17 ± 33 ng/mL | concentration at 48 h (60 mg/kg, oral NS 60 mg/kg, 48 h): 12 ± 19 ng/mL | concentration at 72 h (60 mg/kg, oral NS 60 mg/kg, 72 h): 12 ± 23 ng/mL | concentration at 96 h (60 mg/kg, oral NS 60 mg/kg, 96 h): 6 ± 10 ng/mL | concentration at 120 h (60 mg/kg, oral NS 60 mg/kg, 120 h): 3 ± 6 ng/mL | concentration at 2 h (oral CNS 110 mg/kg, 2 h): 22 ± 42 ng/mL | concentration at 4 h (oral CNS 110 mg/kg, 4 h): 9 ± 15 ng/mL | concentration at 6 h (oral CNS 110 mg/kg, 6 h): 17 ± 16 ng/mL | concentration at 8 h (oral CNS 110 mg/kg, 8 h): 38 ± 75 ng/mL | concentration at 12 h (oral CNS 110 mg/kg, 12 h): 53 ± 110 ng/mL | concentration at 24 h (oral CNS 110 mg/kg, 24 h): 315 ± 787 ng/mL | concentration at 36 h (oral CNS 110 mg/kg, 36 h): 41 ± 68 ng/mL | concentration at 48 h (oral CNS 110 mg/kg, 48 h): 30 ± 70 ng/mL | concentration at 72 h (oral CNS 110 mg/kg, 72 h): 16 ± 35 ng/mL | concentration at 96 h (oral CNS 110 mg/kg, 96 h): 16 ± 36 ng/mL | concentration at 120 h (oral CNS 110 mg/kg, 120 h): 10 ± 17 ng/mL | concentration at 6 h (oral NS 60 mg/kg, 6 h): 10 ± 18 ng/mL | Accumulative excretion amount (oral CNS 110 mg/kg, 2 h): 0.005 ± 0.005 µg | Accumulative excretion percentage (oral CNS 110 mg/kg, 2 h): 0.001±0.001% | Excretion amount (oral CNS 110 mg/kg, 2 h): 0.005 ± 0.005 µg | Accumulative excretion amount (oral CNS 110 mg/kg, 4 h): 0.009 ± 0.008 µg | Accumulative excretion percentage (oral CNS 110 mg/kg, 4 h): 0.001±0.001% | Excretion amount (oral CNS 110 mg/kg, 4 h): 0.005 ± 0.007 µg | Accumulative excretion amount (oral CNS 110 mg/kg, 6 h): 0.024 ± 0.023 µg | Accumulative excretion percentage (oral CNS 110 mg/kg, 6 h): 0.003±0.003% | Excretion amount (oral CNS 110 mg/kg, 6 h): 0.018 ± 0.018 µg | Accumulative excretion amount (oral CNS 110 mg/kg, 8 h): 0.029 ± 0.024 µg | Accumulative excretion percentage (oral CNS 110 mg/kg, 8 h): 0.004±0.003% | Excretion amount (oral CNS 110 mg/kg, 8 h): 0.010 ± 0.009 µg | Accumulative excretion amount (oral CNS 110 mg/kg, 12 h): 0.045 ± 0.040 µg | Accumulative excretion percentage (oral CNS 110 mg/kg, 12 h): 0.006±0.005% | Excretion amount (oral CNS 110 mg/kg, 12 h): 0.019 ± 0.016 µg | Accumulative excretion amount (oral CNS 110 mg/kg, 24 h): 0.103 ± 0.083 µg | Accumulative excretion percentage (oral CNS 110 mg/kg, 24 h): 0.014±0.011% | Excretion amount (oral CNS 110 mg/kg, 24 h): 0.058 ± 0.066 µg | Accumulative excretion amount (oral CNS 110 mg/kg, 36 h): 0.114 ± 0.086 µg | Accumulative excretion percentage (oral CNS 110 mg/kg, 36 h): 0.015±0.011% | Excretion amount (oral CNS 110 mg/kg, 36 h): 0.011 ± 0.009 µg | Accumulative excretion amount (oral CNS 110 mg/kg, 48 h): 0.135 ± 0.096 µg | Accumulative excretion percentage (oral CNS 110 mg/kg, 48 h): 0.018±0.013% | Excretion amount (oral CNS 110 mg/kg, 48 h): 0.021 ± 0.024 µg | Accumulative excretion amount (oral CNS 110 mg/kg, 72 h): 0.139 ± 0.098 µg | Accumulative excretion percentage (oral CNS 110 mg/kg, 72 h): 0.018±0.013% | Excretion amount (oral CNS 110 mg/kg, 72 h): 0.004 ± 0.004 µg | Accumulative excretion amount (oral CNS 110 mg/kg, 96 h): 0.144 ± 0.100 µg | Accumulative excretion percentage (oral CNS 110 mg/kg, 96 h): 0.019±0.013% | Excretion amount (oral CNS 110 mg/kg, 96 h): 0.005 ± 0.005 µg | Accumulative excretion amount (oral CNS 110 mg/kg, 120 h): 0.148 ± 0.101 µg | Accumulative excretion percentage (oral CNS 110 mg/kg, 120 h): 0.019±0.013% | Excretion amount (oral CNS 110 mg/kg, 120 h): 0.004 ± 0.004 µg | Accumulative excretion amount (oral NS 60 mg/kg, 2 h): 0.022 ± 0.025 µg | Accumulative excretion percentage (oral NS 60 mg/kg, 2 h): 0.002±0.003% | Excretion amount (oral NS 60 mg/kg, 2 h): 0.022 ± 0.025 µg | Accumulative excretion amount (oral NS 60 mg/kg, 4 h): 0.027 ± 0.029 µg | Accumulative excretion percentage (oral NS 60 mg/kg, 4 h): 0.003±0.003% | Excretion amount (oral NS 60 mg/kg, 4 h): 0.008 ± 0.003 µg | Accumulative excretion amount (oral NS 60 mg/kg, 6 h): 0.048 ± 0.039 µg | Accumulative excretion percentage (oral NS 60 mg/kg, 6 h): 0.006±0.004% | Excretion amount (oral NS 60 mg/kg, 6 h): 0.021 ± 0.020 µg | Accumulative excretion amount (oral NS 60 mg/kg, 8 h): 0.097 ± 0.129 µg | Accumulative excretion percentage (oral NS 60 mg/kg, 8 h): 0.011±0.015% | Excretion amount (oral NS 60 mg/kg, 8 h): 0.082 ± 0.123 µg | Accumulative excretion amount (oral NS 60 mg/kg, 12 h): 0.173 ± 0.206 µg | Accumulative excretion percentage (oral NS 60 mg/kg, 12 h): 0.020±0.024% | Excretion amount (oral NS 60 mg/kg, 12 h): 0.076 ± 0.083 µg | Accumulative excretion amount (oral NS 60 mg/kg, 24 h): 0.279 ± 0.198 µg | Accumulative excretion percentage (oral NS 60 mg/kg, 24 h): 0.032±0.023% | Excretion amount (oral NS 60 mg/kg, 24 h): 0.106 ± 0.109 µg | Accumulative excretion amount (oral NS 60 mg/kg, 36 h): 0.311 ± 0.182 µg | Accumulative excretion percentage (oral NS 60 mg/kg, 36 h): 0.036±0.021% | Excretion amount (oral NS 60 mg/kg, 36 h): 0.041 ± 0.012 µg | Accumulative excretion amount (oral NS 60 mg/kg, 48 h): 0.359 ± 0.187 µg | Accumulative excretion percentage (oral NS 60 mg/kg, 48 h): 0.041±0.021% | Excretion amount (oral NS 60 mg/kg, 48 h): 0.048 ± 0.045 µg | Accumulative excretion amount (oral NS 60 mg/kg, 72 h): 0.372 ± 0.200 µg | Accumulative excretion percentage (oral NS 60 mg/kg, 72 h): 0.043±0.023% | Excretion amount (oral NS 60 mg/kg, 72 h): 0.013 ± 0.018 µg | Accumulative excretion amount (oral NS 60 mg/kg, 96 h): 0.379 ± 0.211 µg | Accumulative excretion percentage (oral NS 60 mg/kg, 96 h): 0.044±0.024% | Excretion amount (oral NS 60 mg/kg, 96 h): 0.008 ± 0.013 µg | Accumulative excretion amount (oral NS 60 mg/kg, 120 h): 0.386 ± 0.221 µg | Accumulative excretion percentage (oral NS 60 mg/kg, 120 h): 0.044±0.025% | Excretion amount (oral NS 60 mg/kg, 120 h): 0.007 ± 0.012 µg
